Experimental data reported in ChEMBL document CHEMBL1201862, “PubChem BioAssay data set” (2004).
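Tested at 5 concentrations; 48 h exposure; 96-well plates; endpoints linearly interpolated, else capped at highest concentration. GI50 is the concentration that inhibits growth by half.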 Active and inactive are the calls of the source. No stated cut-off is given here; in the data, active = GI50 up to about 1.1 µM and inactive = higher.

Experiments:
Assay in all cases: inhibition of tumour cell growth, NCI panel, 48 h
Hs-578T = system: Hs-578T
UACC-257 = system: UACC-257
ACHN = system: ACHN
HCT-15 = system: HCT-15
HCC 2998 = system: HCC 2998
HCT-116 = system: HCT-116
MDA-MB-435 = system: MDA-MB-435
MDA-MB-231 = system: MDA-MB-231
SF-295 = system: SF-295
RPMI-8226 = system: RPMI-8226
DU-145 = system: DU-145
TK-10 = system: TK-10
IGROV-1 = system: IGROV-1
SK-OV-3 = system: SK-OV-3
T47D = system: T47D
EKVX = system: EKVX
SK-MEL-5 = system: SK-MEL-5
SF-268 = system: SF-268
SNB-19 = system: SNB-19
SR = system: SR
786-0 = system: 786-0
A549 = system: A549
PC-3 = system: PC-3
HOP-92 = system: HOP-92
NCI-H23 = system: NCI-H23
OVCAR-4 = system: OVCAR-4
LOX IMVI = system: LOX IMVI
SF-539 = system: SF-539
MCF7 = system: MCF7
MOLT-4 = system: MOLT-4
M14 = system: M14
HOP-62 = system: HOP-62
SNB-75 = system: SNB-75
Malme-3M = system: Malme-3M
SW-620 = system: SW-620
CAKI-1 = system: CAKI-1
NCI-H522 = system: NCI-H522
SN12C = system: SN12C
UO-31 = system: UO-31
BT-549 = system: BT-549
NCI/ADR-RES = system: NCI/ADR-RES
OVCAR-8 = system: OVCAR-8
HT-29 = system: HT-29
UACC-62 = system: UACC-62
SK-MEL-28 = system: SK-MEL-28
RXF 393 = system: RXF 393
NCI-H460 = system: NCI-H460
KM12 = system: KM12
COLO 205 = system: COLO 205
HL-60 = system: HL-60
NCI-H226 = system: NCI-H226
K562 = system: K562
U-251 = system: U-251
CCRF-CEM = system: CCRF-CEM
SK-MEL-2 = system: SK-MEL-2
OVCAR-5 = system: OVCAR-5
OVCAR-3 = system: OVCAR-3
A498 = system: A498

Measured: GI50

NC1=NNC2(C(N)=N1)c1ccccc1-c1ccccc12
> 10 µM: HCT-15
inactive: Hs-578T > 10 µM | UACC-257 > 10 µM | ACHN > 10 µM | HCC 2998 > 10 µM | HCT-116 > 10 µM | MDA-MB-435 > 10 µM | MDA-MB-231 > 10 µM | SF-295 > 10 µM | RPMI-8226 > 10 µM | DU-145 > 10 µM | TK-10 > 10 µM | IGROV-1 > 10 µM | SK-OV-3 > 10 µM | T47D > 10 µM | EKVX > 10 µM | SK-MEL-5 > 10 µM | SF-268 > 10 µM | SNB-19 > 10 µM | SR > 10 µM | 786-0 > 10 µM | A549 > 10 µM | PC-3 > 10 µM | HOP-92 > 10 µM | NCI-H23 > 10 µM | OVCAR-4 > 10 µM | LOX IMVI > 10 µM | SF-539 > 10 µM | MCF7 > 10 µM | MOLT-4 > 10 µM | M14 > 10 µM | HOP-62 > 10 µM | SNB-75 > 10 µM | Malme-3M > 10 µM | SW-620 > 10 µM | CAKI-1 > 10 µM | NCI-H522 > 10 µM | SN12C > 10 µM | UO-31 5.13 µM | BT-549 > 10 µM | NCI/ADR-RES > 10 µM | OVCAR-8 > 10 µM | HT-29 > 10 µM | UACC-62 > 10 µM | SK-MEL-28 > 10 µM | RXF 393 > 10 µM | NCI-H460 > 10 µM | KM12 > 10 µM | COLO 205 > 10 µM | HL-60 > 10 µM | NCI-H226 > 10 µM

N=c1oc2ccccc2cc1C(=O)Nc1nccs1
inactive: Hs-578T 46.3 µM | UACC-257 27 µM | K562 13.9 µM | ACHN 4.54 µM | HCC 2998 35.2 µM | U-251 33 µM | HCT-116 26.8 µM | MDA-MB-435 25.8 µM | MDA-MB-231 33.7 µM | SF-295 35.6 µM | RPMI-8226 14.1 µM | DU-145 20.9 µM | TK-10 7.85 µM | IGROV-1 8.26 µM | SK-OV-3 7.78 µM | T47D 14.1 µM | EKVX 25.1 µM | SK-MEL-5 31 µM | CCRF-CEM 2.79 µM | SF-268 47.3 µM | SNB-19 52.2 µM | SR 3.24 µM | 786-0 2.37 µM | A549 44.6 µM | PC-3 34.5 µM | HOP-92 32.5 µM | NCI-H23 35.8 µM | SK-MEL-2 26.9 µM | OVCAR-4 20.5 µM | LOX IMVI 2.33 µM | SF-539 5.75 µM | MCF7 5.7 µM | MOLT-4 4.8 µM | M14 19 µM | HOP-62 18.8 µM | SNB-75 35.6 µM | Malme-3M 35.6 µM | SW-620 19.9 µM | CAKI-1 13.4 µM | SN12C 46.9 µM | OVCAR-5 > 69.3 µM | OVCAR-3 9.31 µM | BT-549 39.5 µM | NCI/ADR-RES 19.7 µM | A498 45.7 µM | OVCAR-8 16.8 µM | HT-29 46.6 µM | UACC-62 32.2 µM | SK-MEL-28 44.5 µM | RXF 393 17.5 µM | NCI-H460 26.7 µM | KM12 34.3 µM | COLO 205 14.6 µM | NCI-H226 19.7 µM
24.8 µM: HCT-15
active: NCI-H522 0.647 µM | UO-31 0.031 µM | HL-60 0.91 µM
